Measurements from publication PMC11231610, “Fatty acid binding to the human transport proteins FABP3, FABP4, and FABP5 from a Ligand’s perspective” (The Journal of Biological Chemistry, 2024).
Where “and” joins values, the source holds several entries; their conditions need not be identical. Equal values may be shown once. Blank lines part the entries; values can stand above or below the molecule they belong to.

Experiments:
[1] = target: T1, FABP5 (Homo sapiens, UniProt Q01469); assay: CW EPR spectra and spectral simulations of spin-probed fatty acids with FABP5; format: binding
T1 construct: purchased Sigma Aldrich
Experimental: (§1) For a more in-depth view of the binding mechanism, CW EPR spectra of 5/16-DSA with concentration series of the FABPs were measured and simulated. […] Equal concentrations of 20 μM of each spin probe (5- and 16-DSA) were mixed with FABP concentrations of 0 to 200 μM, increasing the resulting ligand/protein ratio in the samples stepwise from 1/0 to 1/10.
(§2) To analyze the spectra quantitatively, subsequent EPR spectral simulations were performed (Fig. 2, B and C). […] For a better understanding, a first interpretation of these components is given at this point. The rotational dynamics are thought to be indirectly proportional to the strength of intermolecular interactions between fatty acid and FABP. Therefore, they are indicative of the binding state of the fatty acids. Higher rotational correlation times signalize lower ligand dynamics and stronger interactions with the protein. […] This exchange broadening can only occur if radicals are located very close distance each other, colliding with each other, leading to partial overlap of spin-bearing orbitals.
(§3) The fractions (weights) Φx of the spectral components were extracted from the EPR simulations of the concentration series and were used to calculate the concentrations of all components with Eq (1). in Figure 3. This was performed for the intermediately and strongly bound components, as well as for their sum, called totally bound 5/16-DSA, to construct binding curves for all FABPs and spin probes. […] Different fit functions were applied to the curves for a better qualitative and quantitative analysis.

[2] = target: T2, FABP3 (Homo sapiens, UniProt P05413); assay: CW EPR spectra and spectral simulations of spin-probed fatty acids with FABP3; format: binding
T2 construct: purchased Sigma Aldrich
Experimental: as §1, §2, §3

[3] = target: T3, FABP4 (Homo sapiens, UniProt P15090); assay: CW EPR spectra and spectral simulations of spin-probed fatty acids with FABP4; format: binding; settings: 37 °C
T3 construct: purchased Sigma Aldrich
Experimental: as §1, §2, §3

[4] = target: T1, FABP5; assay: DHA displacement of 16-DSA from FABP5 by CW EPR; format: binding; settings: FABP5/16-DSA/DHA up to 20/20/100
Description: In a second addition during revision, we were curious about the question of whether our model ligands that bind with medium affinity to the FABP binding pocket will be displaced when we add a native ligand with higher affinity and whether we could detect this displacement with our CW EPR setup. The native ligand DHA was chosen for this displacement analysis since it is well-known to bind with high affinity to FABP5 ([26]). DHA was pre-dissolved in ethanol, diluted into buffer, and mixed with FABP5 and 16-DSA. […] Samples with FABP5/16-DSA/DHA ratios 20/20/0, 20/20/5, 20/20/10, 20/20/20, 20/20/50, and 20/20/100 were prepared with 5 min incubation time in between 16-DSA and DHA addition. […] We assume that the well-known high binding affinity of DHA refers to the state of strong binding within the pocket. […] Instead, a dynamic exchange of ligands seems to occur, as we consistently observe it with albumins from different species. However, this part opens the way to other future competitive binding assays via CW EPR spectroscopy, e.g., with pharmaceuticals that bind to FABPs.
CW EPR spectroscopic measurements were performed at X-band frequencies (∼9.4 GHz) with a benchtop spectrometer Magnettech MS-5000 (Freiberg Instruments GmbH, now Bruker Biospin). The samples were prepared in low-binding PCR tubes (250 μl). Protein and 5/16-DSA solutions were mixed with HEPES/NaCl buffer at pH 7.5, to obtain samples with a constant 5/16-DSA concentration of 20 μM and varying FABP concentrations of 200, 100, 50, 35, 25, 20, 15, 10 and 5 μM. After an incubation time of 20 min, the samples were transferred into glass capillaries, which were sealed with ‘Critoseal’. At first, solutions with 20 μM of 5/16-DSA were measured as references at 37 °C. The concentration series of FABP with 20 μM 5/16-DSA were measured at 37 °C, directly after preparation. Afterward, the sample capillaries were stored at 4 °C, and subsequent temperature-dependent measurements were performed. […]

[5] = target: FABPs; set-up: method as in PMID 11461829; settings: moderate to high binding affinities of FABPs, ref [2]; cited from earlier work
[6] = target: T2, FABP3; assay: MST binding of fluorescent fatty acids to FABP3
Experimental: (§4) FABPs are known to bind more hydrophobic ligands with higher affinity ([1]).
(§5) Microscale thermophoresis (MST) experiments were carried out on a Monolith NT.115 MST device (NanoTemper Technologies GmbH). […] […] In order to minimize the effect of protein aggregation, 0.05 Vol-% of Tween 20 (NanoTemper Technologies GmbH) were added to the HEPES/NaCl buffer solution. Samples were prepared in low-binding Eppendorf tubes. The influence of photobleaching on the quantum yield was reduced by using freshly diluted fluorophore solutions and storing the samples under the exclusion of light during the incubation time of 10 min. The samples were loaded into premium capillaries (NanoTemper Technologies GmbH). The coated capillary surface is designed to avoid the adhesion of molecules. Initially, repeated pre-tests without protein but with different fluorophore concentrations were carried out. This was done to find the optimum concentration and excitation power and to check the fluorescence activity of the fluorophores. The fluorescence intensity had to be in the range of 300 to 600 counts, with preferably smooth MST traces. For binding affinity measurements, the concentration of the fluorescent fatty acid was held constant at 80 nM, while the non-labeled FABPs were used at variable concentrations in a dilution series. The power of the IR laser was held constant at a medium set for all measurements, generating a constant temperature gradient. The measurements were performed as duplicates, using the software MO. Control (version 1.6) and afterward analyzed with the software MO. Affinity Analysis (version 2.3) (NanoTemper Technologies GmbH). The mean fluorescence intensities at the start time were divided by the values at the end time of the MST traces and normalized, obtaining the MST signal Fnorm. For all analyses, the end time was manually set to 1.5 s after the start of the heating process. Fnorm was normalized for the amplitude and baseline corrected to obtain the bound fraction.

[7] = target: T3, FABP4; assay: MST binding of fluorescent fatty acids to FABP4
Experimental: as §4, §5

[8] = target: T1, FABP5; assay: MST binding of fluorescent fatty acids to FABP5
Experimental: as §4, §5

[9] = 37 °C, 20 μM spin probe, EPR binding curve, read-out: KD,T,75′ (fit), apparent KD read at 75% totally bound
[10] = Hill fit of EPR binding curve, totally bound, 37 °C
[11] = Hill fit, totally bound (T), y = bound 5/16-DSA
[12] = read-out: KD,T,50′ (fit), apparent KD read at 50% totally bound, 37 °C, 20 μM spin probe, EPR binding curve
[13] = Fig. 2B, 20 μM 5-DSA with 100 μM FABP3
[14] = 80 nM rhodamine-PA, HEPES/NaCl pH 7.5 with 0.05 Vol-% Tween 20

T3 sequence (P15090 whole entry): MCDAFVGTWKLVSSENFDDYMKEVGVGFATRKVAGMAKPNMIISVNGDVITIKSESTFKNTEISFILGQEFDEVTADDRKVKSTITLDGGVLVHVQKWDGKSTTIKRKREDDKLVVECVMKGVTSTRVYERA
T1 sequence (Q01469 whole entry): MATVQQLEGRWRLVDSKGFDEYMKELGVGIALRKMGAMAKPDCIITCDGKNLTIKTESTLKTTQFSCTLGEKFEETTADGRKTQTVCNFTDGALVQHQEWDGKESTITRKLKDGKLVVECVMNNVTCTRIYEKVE
T2 sequence (P05413 whole entry): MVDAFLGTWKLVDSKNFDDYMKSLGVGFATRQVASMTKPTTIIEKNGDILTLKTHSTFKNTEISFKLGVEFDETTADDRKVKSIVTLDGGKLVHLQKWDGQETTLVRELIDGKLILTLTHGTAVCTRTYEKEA

Kd ([1]; 37 °C, 20 μM FABP5, 20 μM spin probe, read-out: KD,T,20μM (calculated, totally bound)): 2.05 ± 0.5 µM | Kd [1, 9]: 25 ± 0.3 µM | Kd ([1]; 37 °C, 50 μM FABP5, 20 μM spin probe, read-out: KD,T,50μM (calculated, totally bound)): 5.82 ± 1.14 µM | ΔGF−I,100μM (free to intermediately bound) ([1]; 37 °C, 100 μM FABP5): -25.7 ± 0.2 kJ/mol | ΔGF−S,100μM (free to strongly bound) ([1]; 37 °C, 100 μM FABP5): -20.8 ± 0.1 kJ/mol | ΔGF−T,100μM (free to totally bound) ([1]; 37 °C, 100 μM FABP5): -30.3 ± 0.8 kJ/mol | ΔGI−S,100μM (intermediately to strongly bound) ([1]; 37 °C, 100 μM FABP5): 2.6 ± 0.1 kJ/mol | Kd ([1]; 37 °C, 100 μM FABP5, 20 μM spin probe, read-out: KD,T,100μM (calculated, totally bound)): 7.79 ± 0.37 µM | aiso, component (1) free ([1]; 37 °C, EPR simulation): 44.1 MHz | aiso, component (2) intermediately bound ([1]; 37 °C, EPR simulation): 44.9–46.9 MHz | aiso, component (3) strongly bound ([1]; 37 °C, EPR simulation): 42.3–43.7 MHz | τc,iso, component (1) free ([1]; 37 °C, EPR simulation): 0.09–0.1 ns | τc,iso, component (2) intermediately bound ([1]; 37 °C, EPR simulation): 4.8 ns | τc,iso, component (3) strongly bound ([1]; 37 °C, EPR simulation): 17.9 ns | totally bound fraction ([1]; 37 °C, high FABP5 excess): 94.8% | Hill coefficient n [1, 10]: 1.109 ± 0.041 and ≈ 1 | Hill fit k ([1]; Hill fit, totally bound (T), x = c(FABP5)/c(5/16-DSA)): 0.352 ± 0.009 | Hill fit Vmax [1, 11]: 96.295 ± 0.907 | Kd [1, 12]: 6.6 ± 0.1 µM | Kd ([2]; 37 °C, 20 μM FABP3, 20 μM spin probe, read-out: KD,T,20μM (calculated, totally bound)): 820 ± 650 nM | Kd [2, 9]: 17400 ± 200 nM | Kd ([2]; 37 °C, 50 μM FABP3, 20 μM spin probe, read-out: KD,T,50μM (calculated, totally bound)): 2440 ± 1870 nM | ΔGF−I,100μM (free to intermediately bound) ([2]; 37 °C, 100 μM FABP3): -28.6 ± 0.9 kJ/mol | ΔGF−S,100μM (free to strongly bound) ([2]; 37 °C, 100 μM FABP3): -18.4 ± 0.2 kJ/mol | ΔGF−T,100μM (free to totally bound) ([2]; 37 °C, 100 μM FABP3): -33.8 ± 3.4 kJ/mol | ΔGI−S,100μM (intermediately to strongly bound) ([2]; 37 °C, 100 μM FABP3): 5.3 ± 0.3 kJ/mol | Kd ([2]; 37 °C, 100 μM FABP3, 20 μM spin probe, read-out: KD,T,100μM (calculated, totally bound)): 2060 ± 2680 nM | aiso, component (1) free ([2]; 37 °C, EPR simulation): 44.1 MHz | aiso, component (2) intermediately bound ([2]; 37 °C, EPR simulation): 42.9 MHz | aiso, component (3) strongly bound ([2]; 37 °C, EPR simulation): 41.3 MHz | τc,iso, component (1) free ([2]; 37 °C, EPR simulation): 0.1 ns | τc,iso, component (2) intermediately bound ([2]; 37 °C, EPR simulation): 4.8–4.9 ns | τc,iso, component (3) strongly bound ([2]; 37 °C, EPR simulation): 17.9–19 ns | bound molecules at complete saturation ([2]; 37 °C, tenfold protein excess, totally bound): 100% | rotational correlation time τc, component (1) [2, 13]: 0.1 ns | rotational correlation time τc, component (3) [2, 13]: 17.8 ns | Hill coefficient n [2, 10]: 1.898 and > 1 | Hill fit k ([2]; Hill fit, totally bound (T), x = c(FABP3)/c(5/16-DSA)): 0.475 ± 0.019 | Hill fit Vmax [2, 11]: 98.766 ± 1.7 | Kd [2, 12]: 9600 ± 100 nM | Kd ([3]; 20 μM FABP4, 20 μM spin probe, read-out: KD,T,20μM (calculated, totally bound)): 20.8 ± 0.8 µM | Kd ([3]; 20 μM spin probe, EPR binding curve, read-out: KD,T,75′ (fit), apparent KD read at 75% totally bound): 66 ± 0.7 µM | Kd ([3]; 50 μM FABP4, 20 μM spin probe, read-out: KD,T,50μM (calculated, totally bound)): 25.3 ± 1 µM | ΔGF−I,100μM (free to intermediately bound) ([3]; 100 μM FABP4): -25.9 ± 0.4 kJ/mol | ΔGF−S,100μM (free to strongly bound) ([3]; 100 μM FABP4): -20.3 ± 0.1 kJ/mol | ΔGF−T,100μM (free to totally bound) ([3]; 100 μM FABP4): -29.8 ± 1.1 kJ/mol | ΔGI−S,100μM (intermediately to strongly bound) ([3]; 100 μM FABP4): 3.1 ± 0.2 kJ/mol | Kd ([3]; 100 μM FABP4, 20 μM spin probe, read-out: KD,T,100μM (calculated, totally bound)): 9.53 ± 0.53 µM | aiso, component (1) free ([3]; EPR simulation): 44.1 MHz | aiso, component (2) intermediately bound ([3]; EPR simulation): 46.9 MHz | aiso, component (3) strongly bound ([3]; EPR simulation): 43.0 MHz | τc,iso, component (1) free ([3]; EPR simulation): 0.06–0.08 ns | τc,iso, component (2) intermediately bound ([3]; EPR simulation): 4.8 ns | τc,iso, component (3) strongly bound ([3]; EPR simulation): 17.9 ns | Hill coefficient n ([3]; Hill fit of EPR binding curve, totally bound): > 1 | Kd ([3]; read-out: KD,T,50′ (fit), apparent KD read at 50% totally bound, 20 μM spin probe, EPR binding curve): 31.6 ± 0.3 µM
Structure (SMILES): CCCCCCCCCCCCCC1(CCCC(=O)O)OCC(C)(C)N1[O] (centres unmarked) [5-DSA, 5-DOXYL stearic acid]

bound 16-DSA with rising DHA content [4]: 55%
Structure (SMILES): CC/C=C\C/C=C\C/C=C\C/C=C\C/C=C\C/C=C\CCC(=O)O [DHA, Cis-4,7,10,13,16,19-Docosahexaenoic acid]
displacement of 16-DSA [4]: no complete displacement of 16-DSA occurred

Structure (SMILES): CCCCCCCC/C=C\CCCCCCCC(=O)O [oleic acid]
Kd [5]: 440 to 1560 nM

lnKA [6]: 12.56 ± 0.11 | Kd [6, 14]: 3.5 ± 0.4 µM | ΔGm,A (molar Gibbs energy of association) ([6]; at 22 °C, van't Hoff equation): -30.8 ± 0.27 kJ/mol | lnKA [7]: 11.46 ± 0.18 | Kd ([7]; 80 nM rhodamine-PA, FABP4 handled in water): 10.5 ± 2.1 µM | ΔGm,A (molar Gibbs energy of association) ([7]; at 22 °C, van't Hoff equation): -28.1 ± 0.44 kJ/mol | lnKA [8]: 11.7 ± 0.08 | Kd [8, 14]: 8.3 ± 0.7 µM | ΔGm,A (molar Gibbs energy of association) ([8]; at 22 °C, van't Hoff equation): -28.7 ± 0.2 kJ/mol
Structure (SMILES): CCN(CC)c1ccc2c(-c3ccc(S(=O)(=O)NCCCCCCCCCCCCCCCC(=O)O)cc3S(=O)(=O)[O-])c3ccc(=[N+](CC)CC)cc-3oc2c1 [rhodamine-PA, [16-N-(lissamine rhodamine ß sulfonyl)amino] palmitic acid]
